{"source": "patent EP3436024B1", "about": "“3-BETA-METHOXY-PREG FOR USE IN THE TREATMENT OF TREATMENT RESISTANT DEPRESSION” (Mapreg, priority 2016, dated 2017)", "key": {"Androgen Receptor (AR)": {"biological_target": "T1, Androgen Receptor (AR) (Rattus norvegicus, UniProt P15207)", "T1 construct": "host or cells: E. coli", "T1 sequence (P15207 615-902 limits assumed)": "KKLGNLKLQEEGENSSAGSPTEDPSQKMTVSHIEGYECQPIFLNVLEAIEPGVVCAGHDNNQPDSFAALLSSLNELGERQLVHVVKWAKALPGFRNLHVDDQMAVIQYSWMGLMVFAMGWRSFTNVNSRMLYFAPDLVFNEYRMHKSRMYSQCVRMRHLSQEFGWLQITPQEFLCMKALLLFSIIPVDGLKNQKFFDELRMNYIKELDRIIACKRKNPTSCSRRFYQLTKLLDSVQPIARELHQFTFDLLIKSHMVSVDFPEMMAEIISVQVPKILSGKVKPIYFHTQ", "assay": "Radioligand binding assay, steroid hormone receptor AR", "details": "MAP4343 10 µM; 1.5 nM [^3H] Mibolerone; Rat recombinant E. coli", "description": "(§1) Binding affinity of 3β-methoxy-PREG (MAP4343) for receptors of steroid hormones was evaluated using radioligand binding assays.\n(§2) Table 3. Affinity of MAP4343 (10 µM) for steroid hormones receptors measured by radioligand binding assays. […] None of the results met significance criteria at concentrations used."}, "Wistar (WI) rats": {"system": "Wistar (WI) rats", "assay": "Forced swimming test (FST), WI rats", "type": "in vivo, rat", "details": "dose-ranging, Fig. 6A", "description": "3B-methoxy-PREG (also referred to as \"MAP4343\" in Example 4) was dissolved in sesame oil by sonication using a Sonifer-450 (Branson Ultrasonics Corporation, Danbury, USA) during 1 cycle of 5 pulses in sesame oil. Fluoxetine (Biotrend, Köln, Germany) and Ketamine (Sigma-Aldrich, St-Quentin Fallvier, France) were dissolved in sterile saline solution (NaCl 0.9%). The drug formulations were prepared freshly each day of treatment. MAP4343 was administered subcutaneously (ranging of 1-15 mg/Kg/day) while fluoxetine and ketamine were injected intraperitonealy (10 mg/Kg/day and 30 mg/Kg/day, respectively).\nRats were submitted to the forced swimming test (FST), according the procedure initially described by (Detke et al., 1995) and slightly modified by (Bianchi et al., 2002). Briefly, rats were individually placed into a Plexiglas cylinder (40 cm height, 20 cm diameter) containing 25 cm of water at 25 ± 1°C, under 50 lux illumination. After a pre-test session of 15 min, rats were removed, dried and returned to its housed cage. […] The pre-test and test sessions were recorded using a video camera placed above the cylinder for subsequent behavioral analysis. The immobility time (in sec) was blindly measured by two independent experimenters from recorded videos. […]\nThe effects of a dose-ranging administration of MAP4343 were tested in WI and WKY rats on their immobility time measured in FST."}, "PC12 cells": {"system": "PC12 cells", "assay": "Stimulation of neuritic sprouting", "type": "cell-based", "details": "PC12 cells differentiated with NGF (10 ng/ml), steroid 30 µM, 3 days; relative to PREG", "description": "Stimulation of neuritic sprouting is conducted on PC12 cells differentiated in the presence of NGF (10 ng/ml) and the steroid being tested (30 µM) for 3 days. For each condition, the average length of the longest 200 neurites […] is measured simultaneously for 3 cultures."}, "Serotoninergic 5-HT2A": {"biological_target": "Serotoninergic 5-HT2A (Homo sapiens, UniProt P28223)", "sequence (P28223 whole entry)": "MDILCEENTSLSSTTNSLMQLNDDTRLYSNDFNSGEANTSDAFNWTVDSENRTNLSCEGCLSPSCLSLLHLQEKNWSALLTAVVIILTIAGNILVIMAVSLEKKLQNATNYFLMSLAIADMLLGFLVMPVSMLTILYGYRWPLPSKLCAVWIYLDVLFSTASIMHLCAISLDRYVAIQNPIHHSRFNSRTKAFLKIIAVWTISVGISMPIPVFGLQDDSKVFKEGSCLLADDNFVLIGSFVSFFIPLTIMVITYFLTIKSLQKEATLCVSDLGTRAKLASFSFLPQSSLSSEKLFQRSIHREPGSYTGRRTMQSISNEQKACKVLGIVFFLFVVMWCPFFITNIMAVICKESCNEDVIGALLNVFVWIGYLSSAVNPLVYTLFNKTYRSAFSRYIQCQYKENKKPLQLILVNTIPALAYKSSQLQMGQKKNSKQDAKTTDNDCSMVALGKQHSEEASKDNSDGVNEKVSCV", "assay": "CNS receptor binding assay, 5-HT2A", "details": "MAP4343 10 µM; [^3H] ketanserin; Human recombinant (HEK-293 cells); read-out: % Inhibition of control specific binding", "description": "(§3) MAP4343 has been screened for in vitro affinity to 80 different CNS neurotransmitters receptors using various validated binding assays.\n(§4) Table 4. In vitro affinity of MAP4343 (10 µM) for CNS neurotransmitter receptors associated with side effects and/or abuse liability. Data are the average of two individual assays for each receptor and are expressed as % inhibition of the control specific binding of the reference compound. Results showing an inhibition higher than 50% are considered to represent significant effects of the test compound."}, "Histaminergic H2": {"biological_target": "Histaminergic H2 (Homo sapiens, UniProt P25021)", "assay": "CNS receptor binding assay, H2", "details": "MAP4343 10 µM; [^125I] APT; Human recombinant (CHO cells); read-out: % Inhibition of control specific binding", "description": "as §3, §4"}, "[1]": {"biological_target": "T2, Glucorticoid Receptor (GR) (Homo sapiens, UniProt P04150)", "T2 construct": "Human HeLa S3 cells; endogenous in cells; host or cells: HeLa S3", "T2 sequence (P04150 whole entry)": "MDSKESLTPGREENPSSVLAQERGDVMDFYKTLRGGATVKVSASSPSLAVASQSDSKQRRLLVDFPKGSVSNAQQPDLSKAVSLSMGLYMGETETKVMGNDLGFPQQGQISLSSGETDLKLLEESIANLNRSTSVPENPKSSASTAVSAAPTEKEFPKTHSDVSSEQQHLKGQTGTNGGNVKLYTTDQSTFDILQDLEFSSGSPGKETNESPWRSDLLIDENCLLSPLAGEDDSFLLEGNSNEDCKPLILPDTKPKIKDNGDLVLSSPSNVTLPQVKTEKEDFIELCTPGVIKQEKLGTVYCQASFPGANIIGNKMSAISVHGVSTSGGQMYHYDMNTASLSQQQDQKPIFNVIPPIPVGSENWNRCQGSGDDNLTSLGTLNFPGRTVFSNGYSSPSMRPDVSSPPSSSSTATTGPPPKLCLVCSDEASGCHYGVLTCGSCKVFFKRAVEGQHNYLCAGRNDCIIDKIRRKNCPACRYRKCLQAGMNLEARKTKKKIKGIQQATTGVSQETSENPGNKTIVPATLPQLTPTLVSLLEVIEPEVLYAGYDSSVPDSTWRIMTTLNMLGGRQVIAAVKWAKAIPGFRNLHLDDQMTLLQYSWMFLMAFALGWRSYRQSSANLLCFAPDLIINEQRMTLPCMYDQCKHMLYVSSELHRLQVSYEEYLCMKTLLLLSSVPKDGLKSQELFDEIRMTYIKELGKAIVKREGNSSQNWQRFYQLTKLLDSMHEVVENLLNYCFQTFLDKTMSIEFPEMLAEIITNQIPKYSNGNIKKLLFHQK", "assay": "Radioligand binding assay, steroid hormone receptor GR", "details": "MAP4343 10 µM; 3 nM [^3H] Dexamethasone; Human HeLa S3 cells", "description": "as §1, §2"}, "[2]": {"biological_target": "T3, Muscarinic (Cholinergic) M1 (Homo sapiens, UniProt P11229)", "T3 construct": "expressed in transfected cells; host or cells: CHO cells", "T3 sequence (P11229 whole entry)": "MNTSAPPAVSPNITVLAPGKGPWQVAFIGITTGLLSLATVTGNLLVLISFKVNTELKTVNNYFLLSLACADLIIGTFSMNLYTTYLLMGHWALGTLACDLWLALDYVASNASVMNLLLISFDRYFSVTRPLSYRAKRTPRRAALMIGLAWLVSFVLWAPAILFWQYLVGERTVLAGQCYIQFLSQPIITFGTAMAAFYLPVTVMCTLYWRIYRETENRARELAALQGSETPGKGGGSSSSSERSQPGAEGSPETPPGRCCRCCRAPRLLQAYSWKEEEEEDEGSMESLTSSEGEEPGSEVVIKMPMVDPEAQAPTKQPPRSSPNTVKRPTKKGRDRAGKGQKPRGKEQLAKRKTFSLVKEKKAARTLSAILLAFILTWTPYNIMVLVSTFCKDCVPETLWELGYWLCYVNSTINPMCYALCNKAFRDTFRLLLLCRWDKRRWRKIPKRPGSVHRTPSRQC", "assay": "CNS receptor binding assay, M1", "details": "MAP4343 10 µM; [^3H] pirenzepine; Human recombinant (CHO cells); read-out: % Inhibition of control specific binding", "description": "as §3, §4"}, "Oppioid K": {"biological_target": "Oppioid K (Rattus norvegicus, UniProt P34975)", "sequence (P34975 whole entry)": "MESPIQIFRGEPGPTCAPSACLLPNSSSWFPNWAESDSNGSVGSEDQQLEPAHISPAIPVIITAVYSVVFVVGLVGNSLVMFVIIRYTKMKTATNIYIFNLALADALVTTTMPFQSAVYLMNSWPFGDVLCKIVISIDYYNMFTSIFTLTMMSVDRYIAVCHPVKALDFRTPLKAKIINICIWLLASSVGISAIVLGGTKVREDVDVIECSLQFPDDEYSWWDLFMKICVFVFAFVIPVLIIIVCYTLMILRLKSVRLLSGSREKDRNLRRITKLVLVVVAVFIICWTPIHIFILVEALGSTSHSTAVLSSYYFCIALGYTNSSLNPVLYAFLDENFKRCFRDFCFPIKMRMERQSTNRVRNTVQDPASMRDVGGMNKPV", "assay": "CNS receptor binding assay, opioid K", "details": "MAP4343 10 µM; [^3H] U 69593; rat recombinant (CHO cells); read-out: % Inhibition of control specific binding", "description": "as §3, §4"}, "Serotoninergic 5-HT1A": {"biological_target": "Serotoninergic 5-HT1A (Homo sapiens, UniProt P08908)", "sequence (P08908 whole entry)": "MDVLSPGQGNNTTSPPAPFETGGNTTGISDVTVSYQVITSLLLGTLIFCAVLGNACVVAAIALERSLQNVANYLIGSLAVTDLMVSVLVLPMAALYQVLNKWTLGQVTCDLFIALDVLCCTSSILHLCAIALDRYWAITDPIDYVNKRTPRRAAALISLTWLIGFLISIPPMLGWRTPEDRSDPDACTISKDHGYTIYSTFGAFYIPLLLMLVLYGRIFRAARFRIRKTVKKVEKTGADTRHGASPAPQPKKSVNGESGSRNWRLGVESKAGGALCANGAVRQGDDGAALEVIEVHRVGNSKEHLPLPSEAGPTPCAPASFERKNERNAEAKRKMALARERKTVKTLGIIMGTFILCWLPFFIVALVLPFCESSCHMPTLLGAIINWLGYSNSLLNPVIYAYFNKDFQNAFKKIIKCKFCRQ", "assay": "CNS receptor binding assay, 5-HT1A", "details": "MAP4343 10 µM; [^3H] 8-OH-DPAT; Human recombinant (HEK-293 cells); read-out: % Inhibition of control specific binding", "description": "as §3, §4"}, "Serotoninergic 5-HT7": {"biological_target": "Serotoninergic 5-HT7 (Homo sapiens, UniProt P34969)", "sequence (P34969 whole entry)": "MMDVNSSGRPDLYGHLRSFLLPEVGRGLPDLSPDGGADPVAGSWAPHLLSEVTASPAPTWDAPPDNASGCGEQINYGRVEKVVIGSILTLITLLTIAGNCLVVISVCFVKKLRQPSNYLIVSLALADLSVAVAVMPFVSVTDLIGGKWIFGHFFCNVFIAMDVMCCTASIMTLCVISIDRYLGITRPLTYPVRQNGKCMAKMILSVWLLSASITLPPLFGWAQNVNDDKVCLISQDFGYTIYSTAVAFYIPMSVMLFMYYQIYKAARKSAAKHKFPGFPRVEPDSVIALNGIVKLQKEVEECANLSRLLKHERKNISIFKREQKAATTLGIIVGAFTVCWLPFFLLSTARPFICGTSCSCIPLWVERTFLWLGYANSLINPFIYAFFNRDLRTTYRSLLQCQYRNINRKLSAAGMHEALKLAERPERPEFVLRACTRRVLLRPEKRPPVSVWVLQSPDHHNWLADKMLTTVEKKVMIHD", "assay": "CNS receptor binding assay, 5-HT7", "details": "MAP4343 10 µM; [^3H] LSD; Human recombinant (CHO cells); read-out: % Inhibition of control specific binding", "description": "as §3, §4"}, "Serotoninergic 5-HT2B": {"biological_target": "Serotoninergic 5-HT2B (Homo sapiens, UniProt P41595)", "assay": "CNS receptor binding assay, 5-HT2B", "details": "MAP4343 10 µM; [^125I] (±) DOI; Human recombinant (CHO cells); read-out: % Inhibition of control specific binding", "description": "as §3, §4"}, "Noradrenergic β2": {"biological_target": "Noradrenergic β2 (Homo sapiens, UniProt P07550)", "sequence (P07550 whole entry)": "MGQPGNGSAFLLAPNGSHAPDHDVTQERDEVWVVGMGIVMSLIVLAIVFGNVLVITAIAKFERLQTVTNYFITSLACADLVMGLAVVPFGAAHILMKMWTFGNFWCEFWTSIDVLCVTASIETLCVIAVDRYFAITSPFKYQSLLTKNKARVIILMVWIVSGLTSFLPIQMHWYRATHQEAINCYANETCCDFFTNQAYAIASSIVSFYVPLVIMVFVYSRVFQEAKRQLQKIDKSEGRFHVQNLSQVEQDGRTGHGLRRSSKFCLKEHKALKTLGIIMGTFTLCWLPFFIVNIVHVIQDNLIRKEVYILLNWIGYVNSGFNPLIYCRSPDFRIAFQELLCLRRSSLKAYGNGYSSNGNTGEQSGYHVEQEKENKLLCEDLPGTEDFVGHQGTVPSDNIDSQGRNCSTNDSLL", "assay": "CNS receptor binding assay, β2", "details": "MAP4343 10 µM; [^3H] (-) CGP 12178; Human recombinant (CHO cells); read-out: % Inhibition of control specific binding", "description": "as §3, §4"}, "ERβ": {"biological_target": "T4, ERβ (Homo sapiens, UniProt Q92731)", "T4 construct": "host or cells: Sf9 cells", "T4 sequence (Q92731 whole entry)": "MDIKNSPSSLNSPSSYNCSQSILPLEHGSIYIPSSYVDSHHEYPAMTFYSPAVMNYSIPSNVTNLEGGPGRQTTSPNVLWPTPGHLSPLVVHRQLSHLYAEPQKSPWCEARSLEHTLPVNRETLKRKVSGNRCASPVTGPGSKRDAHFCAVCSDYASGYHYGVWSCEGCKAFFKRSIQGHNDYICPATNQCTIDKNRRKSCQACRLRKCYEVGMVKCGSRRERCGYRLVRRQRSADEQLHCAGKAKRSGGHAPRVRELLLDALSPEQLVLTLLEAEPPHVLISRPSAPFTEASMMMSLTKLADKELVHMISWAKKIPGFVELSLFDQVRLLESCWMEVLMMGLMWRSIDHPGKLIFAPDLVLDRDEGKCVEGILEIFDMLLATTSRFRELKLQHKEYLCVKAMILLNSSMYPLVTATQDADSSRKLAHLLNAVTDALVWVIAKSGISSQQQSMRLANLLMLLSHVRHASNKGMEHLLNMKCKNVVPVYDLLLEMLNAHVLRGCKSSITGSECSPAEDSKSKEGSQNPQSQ", "assay": "Radioligand binding assay, steroid hormone receptor ERβ", "details": "MAP4343 10 µM; 0.5 nM [^3H] Estradiol; Human recombinant Sf9 cells; second ER row", "description": "as §1, §2"}, "Serotoninergic 5-HT2C": {"biological_target": "Serotoninergic 5-HT2C (Homo sapiens, UniProt P28335)", "assay": "CNS receptor binding assay, 5-HT2C", "details": "MAP4343 10 µM; [^3H] mesulergine; Human recombinant (CHO cells); read-out: % Inhibition of control specific binding", "description": "as §3, §4"}, "Dopaminergic D4.4": {"biological_target": "Dopaminergic D4.4 (Homo sapiens, UniProt P21917)", "assay": "CNS receptor binding assay, D4.4", "details": "MAP4343 10 µM; [^3H] spiperone; Human recombinant (CHO cells); read-out: % Inhibition of control specific binding", "description": "as §3, §4"}, "Histaminergic H1": {"biological_target": "Histaminergic H1 (Homo sapiens, UniProt P35367)", "sequence (P35367 whole entry)": "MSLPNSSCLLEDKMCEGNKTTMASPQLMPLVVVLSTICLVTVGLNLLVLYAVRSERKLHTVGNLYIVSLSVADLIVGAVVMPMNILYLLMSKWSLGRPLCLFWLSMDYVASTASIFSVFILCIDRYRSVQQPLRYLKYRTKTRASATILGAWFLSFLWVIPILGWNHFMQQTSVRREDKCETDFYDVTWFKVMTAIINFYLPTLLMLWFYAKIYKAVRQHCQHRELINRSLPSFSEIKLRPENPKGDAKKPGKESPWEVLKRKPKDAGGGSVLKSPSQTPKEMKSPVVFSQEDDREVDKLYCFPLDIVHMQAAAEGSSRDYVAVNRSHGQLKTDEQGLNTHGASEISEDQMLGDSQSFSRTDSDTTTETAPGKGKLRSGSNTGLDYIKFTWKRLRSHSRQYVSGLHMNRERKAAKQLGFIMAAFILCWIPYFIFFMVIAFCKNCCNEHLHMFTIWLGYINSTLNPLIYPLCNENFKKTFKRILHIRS", "assay": "CNS receptor binding assay, H1", "details": "MAP4343 10 µM; [^3H] pyrilamine; Human recombinant (HEK-293 cells); read-out: % Inhibition of control specific binding", "description": "as §3, §4"}}}
{"smiles": "CO[C@H]1CC[C@@]2(C)C(=CC[C@H]3[C@@H]4CC[C@H](C(C)=O)[C@@]4(C)CC[C@@H]32)C1", "note": "(stereo in doubt) [MAP4343, 3β-methoxy-pregna-5-ene-20-one]", "values": [{"measurement": "% inhibition", "setting": "Androgen Receptor (AR)", "value": 18, "unit": "%"}, {"measurement": "inhibition at 10 µM", "setting": "Androgen Receptor (AR)", "value": "< 25", "unit": "%"}, {"measurement": "immobility time measured in FST, change as compared to WI receiving vehicle alone", "setting": "Wistar (WI) rats; MAP4343 10 mg/kg", "value": -27, "unit": "%"}, {"measurement": "immobility time measured in FST, change as compared to WI receiving vehicle alone", "setting": "Wistar (WI) rats; MAP4343 15 mg/kg", "value": -31, "unit": "%"}, {"measurement": "Neuritic sprouting", "setting": "PC12 cells", "value": "+++"}, {"measurement": "inhibition at 10 µM", "setting": "Serotoninergic 5-HT2A", "value": 1, "unit": "%"}, {"measurement": "inhibition at 10 µM", "setting": "Histaminergic H2", "value": -21, "unit": "%"}, {"measurement": "% inhibition", "setting": "[1]", "value": 21, "unit": "%"}, {"measurement": "inhibition at 10 µM", "setting": "[1]", "value": "< 25", "unit": "%"}, {"measurement": "inhibition at 10 µM", "setting": "[2]", "value": -3, "unit": "%"}, {"measurement": "inhibition at 10 µM", "setting": "Oppioid K", "value": 19, "unit": "%"}, {"measurement": "inhibition at 10 µM", "setting": "Serotoninergic 5-HT1A", "value": 2, "unit": "%"}, {"measurement": "inhibition at 10 µM", "setting": "Serotoninergic 5-HT7", "value": -11, "unit": "%"}, {"measurement": "inhibition at 10 µM", "setting": "Serotoninergic 5-HT2B", "value": -4, "unit": "%"}, {"measurement": "inhibition at 10 µM", "setting": "Noradrenergic β2", "value": -4, "unit": "%"}, {"measurement": "% inhibition", "setting": "ERβ", "value": 16, "unit": "%"}, {"measurement": "inhibition at 10 µM", "setting": "ERβ", "value": "< 25", "unit": "%"}, {"measurement": "inhibition at 10 µM", "setting": "Serotoninergic 5-HT2C", "value": 7, "unit": "%"}, {"measurement": "inhibition at 10 µM", "setting": "Dopaminergic D4.4", "value": 6, "unit": "%"}, {"measurement": "inhibition at 10 µM", "setting": "Histaminergic H1", "value": 9, "unit": "%"}]}
